Results as given in patent publication US9096591B2, “Tetracyclic compounds” (Medivation Technologies, Inc., priority 2007, dated 2015).
Read-outs that look alike come from different tables or passages of the source.

Assays:
[1] = target: T1, human recombinant adrenergic α2A receptor (Homo sapiens, UniProt P08913); assay: Adrenergic α2A radioligand binding ([3H]MK-912); set-up: Inhibition of ligand binding, Adren. alpha2A: concentration or dose not given beside the values; settings: percent inhibition of specific binding
T1 construct: expressed in transfected cells; host or cells: insect Sf9 cells
T1 sequence (P08913 1-465): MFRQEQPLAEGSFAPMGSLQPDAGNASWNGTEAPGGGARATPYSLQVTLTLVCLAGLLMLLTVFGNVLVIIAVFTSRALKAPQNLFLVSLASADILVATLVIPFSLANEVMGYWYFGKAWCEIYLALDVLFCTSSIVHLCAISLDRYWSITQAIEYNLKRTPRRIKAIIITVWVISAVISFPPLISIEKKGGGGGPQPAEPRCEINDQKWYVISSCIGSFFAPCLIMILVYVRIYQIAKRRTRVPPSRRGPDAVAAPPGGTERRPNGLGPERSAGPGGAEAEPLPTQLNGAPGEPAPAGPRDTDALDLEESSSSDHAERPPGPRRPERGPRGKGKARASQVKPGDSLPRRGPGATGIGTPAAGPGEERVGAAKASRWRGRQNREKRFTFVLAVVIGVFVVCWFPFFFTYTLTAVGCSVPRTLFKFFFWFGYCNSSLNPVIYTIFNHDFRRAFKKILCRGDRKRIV
Description: To evaluate in radioligand binding assays the activity of compounds of the invention, human recombinant adrenergic α2A receptor expressed in insect Sf9 cells (Uhlen S et al. J Pharmacol Exp Ther. 271:1558, 1994) in a modified Tris-HCl buffer (50 mM Tris-HCl, pH 7.4, 12.5 mM MgCl2, 2 mM EDTA) was used. Compounds of invention were incubated with 1 nM [^3H]MK-912 for 60 minutes at 25° C. MK912 is (2S-trans)-1,3,4,5′,6,6′,7,12b-octahydro-1′,3′-dimethyl-spiro[2H-benzofuro[2,3-a]quinolizine-2,4′(1′H)-pyrimidin]-2′(3′H)-one hydrochloride Non-specific binding was estimated in the presence of 10 μM WB-4101 (2-(2,6-Dimethoxyphenoxyethyl)aminomethyl-1,4-benzodioxane hydrochloride). Receptor proteins were filtered and washed, the filters were then counted to determine [^3H]MK-912 specifically bound. […] Biochemical assay results are presented as the percent inhibition of specific binding in Table 6.

[2] = target: T2, human recombinant serotonin (5-Hydroxytryptamine) 5-HT6 receptor (Homo sapiens, UniProt P50406); assay: Serotonin 5-HT6 radioligand binding ([3H]LSD); set-up: Inhibition of ligand binding, Ser. 5-HT6: concentration or dose not given beside the values; settings: percent inhibition of specific binding
T2 construct: expressed in transfected cells; host or cells: human HeLa cells
T2 sequence (P50406 whole entry): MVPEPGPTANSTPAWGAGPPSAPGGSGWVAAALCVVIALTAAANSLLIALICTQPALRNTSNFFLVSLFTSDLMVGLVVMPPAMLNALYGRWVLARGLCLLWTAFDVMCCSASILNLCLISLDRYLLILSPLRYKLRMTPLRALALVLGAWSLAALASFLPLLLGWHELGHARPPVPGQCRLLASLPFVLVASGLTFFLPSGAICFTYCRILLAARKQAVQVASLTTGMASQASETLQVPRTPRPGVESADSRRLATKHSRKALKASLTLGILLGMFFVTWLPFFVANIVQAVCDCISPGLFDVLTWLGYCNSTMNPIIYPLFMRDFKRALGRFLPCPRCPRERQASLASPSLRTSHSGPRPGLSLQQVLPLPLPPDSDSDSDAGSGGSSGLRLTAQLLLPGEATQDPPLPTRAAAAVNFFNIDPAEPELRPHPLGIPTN
Excerpt: Receptor proteins were filtered and washed, the filters were then counted to determine [3H]LSD specifically bound. […] Biochemical assay results are presented as the percent inhibition of specific binding in Table 6.

[3] = target: T3, human recombinant serotonin (5-Hydroxytryptamine) 5-HT2C receptor (Homo sapiens, UniProt P28335); assay: Serotonin 5-HT2C radioligand binding ([3H]Mesulergine); set-up: Inhibition of ligand binding, Ser. 5-HT2C: concentration or dose not given beside the values; settings: percent inhibition of specific binding
T3 construct: expressed in transfected cells; host or cells: CHO-K1 cells
T3 sequence (P28335 33-458): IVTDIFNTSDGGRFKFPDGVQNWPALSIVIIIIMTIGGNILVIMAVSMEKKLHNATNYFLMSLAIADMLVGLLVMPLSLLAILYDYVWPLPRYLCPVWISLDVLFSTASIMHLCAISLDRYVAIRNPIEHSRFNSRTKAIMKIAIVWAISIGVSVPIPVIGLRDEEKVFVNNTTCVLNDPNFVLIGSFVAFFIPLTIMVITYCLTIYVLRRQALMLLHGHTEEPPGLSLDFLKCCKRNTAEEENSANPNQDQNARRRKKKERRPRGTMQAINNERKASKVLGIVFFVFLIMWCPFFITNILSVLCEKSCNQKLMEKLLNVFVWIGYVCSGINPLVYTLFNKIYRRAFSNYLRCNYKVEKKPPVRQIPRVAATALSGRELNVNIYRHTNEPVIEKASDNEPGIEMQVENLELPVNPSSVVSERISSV
Description: (§1) Compounds of the invention were incubated with 1 nM [^3H]Mesulergine for 60 minutes at 25° C. Non-specific binding was estimated in the presence of 1 μM Mianserin. Receptor proteins were filtered and washed, the filters were then counted to determine [^3H]Mesulergine specifically bound. […] Biochemical assay results are presented as the percent inhibition of specific binding in Table 6.

[4] = target: T4, human recombinant serotonin (5-Hydroxytryptamine) 5-HT2A receptor (Homo sapiens, UniProt P28223); assay: Serotonin 5-HT2A radioligand binding ([3H]Ketanserin); settings: percent inhibition of specific binding
T4 construct: expressed in transfected cells; host or cells: CHO-K1 cells
T4 sequence (P28223 whole entry): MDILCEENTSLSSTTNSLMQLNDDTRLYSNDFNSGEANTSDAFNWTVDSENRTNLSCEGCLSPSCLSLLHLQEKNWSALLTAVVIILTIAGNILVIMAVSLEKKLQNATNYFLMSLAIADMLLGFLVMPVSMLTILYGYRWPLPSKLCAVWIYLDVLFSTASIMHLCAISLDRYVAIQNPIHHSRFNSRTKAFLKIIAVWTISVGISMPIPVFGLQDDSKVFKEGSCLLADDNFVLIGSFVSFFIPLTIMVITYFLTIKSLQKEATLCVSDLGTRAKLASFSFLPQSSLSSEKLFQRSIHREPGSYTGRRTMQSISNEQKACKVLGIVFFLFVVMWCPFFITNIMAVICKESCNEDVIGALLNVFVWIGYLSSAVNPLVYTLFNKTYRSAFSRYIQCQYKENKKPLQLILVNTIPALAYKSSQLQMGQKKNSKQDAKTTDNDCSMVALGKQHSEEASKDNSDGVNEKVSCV
Description: as §1, with “with 0.5” for “with 1”, “nM [^3H]Ketanserin” for “nM [^3H]Mesulergine”, “determine [^3H]Ketanserin” for “determine [^3H]Mesulergine”

[5] = target: T5, human recombinant histamine H1 receptor (Homo sapiens, UniProt P35367); assay: Histamine H1 radioligand binding ([3H]Pyrilamine); settings: for inhibition at 0.03 µM: 0.03 μM compound; for inhibition at 0.1 µM: 0.1 μM compound
T5 construct: expressed in transfected cells; host or cells: CHO cells
T5 sequence (P35367 whole entry): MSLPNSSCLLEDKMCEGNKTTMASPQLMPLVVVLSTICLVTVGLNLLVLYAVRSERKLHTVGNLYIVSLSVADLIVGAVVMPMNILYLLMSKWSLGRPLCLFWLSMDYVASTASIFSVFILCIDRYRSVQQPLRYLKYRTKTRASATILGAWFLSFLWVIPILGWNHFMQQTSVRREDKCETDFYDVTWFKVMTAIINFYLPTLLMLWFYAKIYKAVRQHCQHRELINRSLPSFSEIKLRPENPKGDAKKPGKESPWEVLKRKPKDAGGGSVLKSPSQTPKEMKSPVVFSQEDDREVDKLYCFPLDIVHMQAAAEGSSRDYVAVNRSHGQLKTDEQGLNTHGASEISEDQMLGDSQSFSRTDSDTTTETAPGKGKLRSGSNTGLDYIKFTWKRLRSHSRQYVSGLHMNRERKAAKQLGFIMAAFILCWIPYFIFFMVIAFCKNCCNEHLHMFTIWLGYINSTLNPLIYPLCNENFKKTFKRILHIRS
In short: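 Receptor expressed in CHO cells, assayed in 50 mM Tris-HCl pH 7.4 with 2 mM MgCl2, 100 mM NaCl, 250 mM sucrose. Compounds tested at 1 μM in 1% DMSO; non-specific binding set with 1 μM pyrilamine. Filter-bound radioactivity counted; values are percent inhibition of specific binding.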

[6] = […] [3H]Pyrilamine, read-out: Histamine Binding H1, percent inhibition of specific binding
[7] = 1 μM compound, […] [3H]Pyrilamine, read-out: Histamine Binding H1, percent inhibition of specific binding
[8] = percent inhibition of specific binding, screened at 1 μM, read-out: Inhibition of ligand binding, Hist. H1

SMILES | Inhibition of ligand binding, Adren. alpha2A [1] | Inhibition of ligand binding, Ser. 5-HT6 [2] | Inhibition of ligand binding, Ser. 5-HT2C [3] | Inhibition of ligand binding, Ser. 5-HT2A [4] | inhibition at 0.03 µM [5, 6] | inhibition at 0.1 µM [5, 6] | inhibition at 1 µM [5, 7] | inhibition at 1 µM [5, 8]
Cc1ccc(CCn2c3c(c4ccccc42)CN(C)CC3)cc1 [Compound 1, 2,3,4,5-tetrahydro-2-methyl-5-(4-methylphenethyl)-1H-pyrido[4,3-b]indole] | 99% | 87% | 95% | 95% | 32% | 56% | 91% | 91%
CCN1CCc2c(c3ccccc3n2CCc2ccc(C)cc2)C1 [Compound 3, 2-ethyl-2,3,4,5-tetrahydro-5-(4-methylphenethyl)-1H-pyrido[4,3-b]indole] | 86% | 40% | 82% | 98% |  |  | 88% | 88%
CCN1CCc2c(c3ccccc3n2CCc2ccccc2)C1 [Compound 4, 2-ethyl-2,3,4,5-tetrahydro-5-phenethyl-1H-pyrido[4,3-b]indole] | 82% | 82% | 94% | 102% | 47% | 73% | 93% | 93%
CCN1CCc2c(c3ccccc3n2CCc2ccncc2)C1 [Compound 5] | 20% | 1% | 9% | 55% |  |  | 82% | 82%
CCN1CCc2c(c3ccccc3n2CCc2ccccn2)C1 [Compound 6] | 20% | 7% | 34% | 74% |  |  | 32% | 32%
CN1CCc2c(c3ccccc3n2CCc2ccncc2)C1 [Compound 10, 2,3,4,5-tetrahydro-2-methyl-5-(2-(pyridin-4-yl)ethyl)-1H-pyrido[4,3-b]indole] | 33% | 32% | 53% | 69% |  |  | 88% | 88%
CCN1CCc2c(c3ccccc3n2Cc2ccccc2)C1 [Compound 16, 5-benzyl-2-ethyl-2,3,4,5-tetrahydro-1H-pyrido[4,3-b]indole] | 10% | 6% | 5% | 14% |  |  | 10% | 10%
Cc1ccc(Cn2c3c(c4ccccc42)CN(C)CC3)cn1 [Compound 17, 2,3,4,5-tetrahydro-2-methyl-5-((6-methylpyridin-3-yl)methyl)-1H-pyrido[4,3-b]indole] | 56% | 0% | 8% | −7% |  |  | 15% | 15%
CCOC(=O)N1CCc2c(c3cc(Br)ccc3n2CCc2ccc(C)nc2)C1 [Compound 18, ethyl 8-bromo-3,4-dihydro-5-(2-(6-methylpyridin-3-yl)ethyl)-1H-pyrido[4,3-b]indole-2(5H)-carboxylate] | −10% | 6% | −14% | 5% |  |  | -14% | -14%
CCOC(=O)N1CCc2c(c3cc(-c4cccnc4)ccc3n2CCc2ccc(C)nc2)C1 [Compound 19, ethyl 3,4-dihydro-5-(2-(6-methylpyridin-3-yl)ethyl)-8-(pyridin-3-yl)-1H-pyrido[4,3-b]indole-2(5H)-carboxylate] | −8% | −5% | −17% | 2% |  |  | -3% | -3%
Cc1ccc2c(c1)c1c(n2CCc2ccccn2)CCN(C)C1 [Compound 21, 2,3,4,5-tetrahydro-2,8-dimethyl-5-(2-(pyridin-2-yl)ethyl)-1H-pyrido[4,3-b]indole] |  | 79% | 87% | 94% |  |  | 79% | 79%
CCN1CCc2c(c3cc(C)ccc3n2CCc2ccccn2)C1 [Compound 23, 2-ethyl-2,3,4,5-tetrahydro-8-methyl-5-(2-(pyridin-2-yl)ethyl)-1H-pyrido[4,3-b]indole] | 57% | 47% | 53% | 78% |  |  | 69% | 69%
CCOC(=O)N1CCc2c(c3cc(C)ccc3n2CCc2ccccc2)C1 [Compound 24, ethyl 3,4-dihydro-8-methyl-5-phenethyl-1H-pyrido[4,3-b]indole-2(5H)-carboxylate] | 7% | −4% | 1% | −2% |  |  | -4% | -4%
Cc1ccc(CCn2c3c(c4cc(C)ccc42)CN(C)CC3)cc1 [Compound 25, 2,3,4,5-tetrahydro-2,8-dimethyl-5-(4-methylphenethyl)-1H-pyrido[4,3-b]indole] | 99% | 103% | 99% | 93% | 71% | 89% | 97% | 97%
